From patent US8420819B2, “Process for optimizing the particle size of an active pharmaceutical ingredient by crystallization” (Boehringer Ingelheim International GmbH, priority 2009, dated 2013)

How the values were obtained:
[1] = Powder properties (flowability, bulk density) of crystallized particles; assay type: physicochemical; conditions: MEK/heptane process compared to particles produced from other solvent systems
[2] = Particle size of co-crystal batches, measured by Sympatec laser light diffraction; assay type: physicochemical; conditions: for Particle Size D10: scale-up batches from MEK/heptane crystallization, Sympatec laser light diffraction

powder properties (flowability, bulk density) [1]: excellent powder properties
D90 ([2]; MEK/heptane, initial concentration approximately 0.11-0.14 g/mL, seeded, high supersaturation): < 10 μm
D90 ([2]; approximately 1.0 wt % water in the solution (between about 0.7% and 1.2%) (FIG. 2)): 25-30 μm
particle size of the product, D90 ([2]; crystallization as part of the synthesis, from acetic acid or anisole solvate, 50.0 g, KF <0.2 wt %): about 7 μm
D90 ([2]; crystallization with 0.1 wt % water (FIG. 1)): 6 μm
D90 ([2]; crystallization with 1.1 wt % water (FIG. 2)): 26 μm
D90 ([2]; crystallization with 2.0 wt % water (FIG. 3)): 50 μm
D90 ([2]; crystallization with <0.5 wt % water in the solution (FIG. 1)): 5-10 μm
Particle Size D10 ([2]; listed as Kilo lab batch, 1.8 kg, from acetic acid solvate): 1.19 μm
Particle Size D10 ([2]; listed as Lab batch 1 from acetic acid solvate): 1.29 μm
Particle Size D10 ([2]; listed as Lab batch 2 from acetic acid solvate): 1.28 μm
Particle Size D10 ([2]; listed as Lab batch 3 from acetic acid solvate): 1.54 μm
Particle Size D10 ([2]; listed as Lab batch from new synthesis from acetic acid solvate): 1.17 μm
Particle Size D10 ([2]; listed as Lab batch, from anisole solvate): 1.31 μm
Particle Size D10 ([2]; listed as Pilot plant batch A, 11 kg, from anisole solvate): 1.61 μm
Particle Size D10 ([2]; listed as Pilot plant batch B, 22 kg, from anisole solvate): 1.67 μm
Particle Size D10 ([2]; listed as Pilot plant batch, 9 kg, from acetic acid solvate): 1.26 μm
particle size of the product, D90 ([2]; standalone re-crystallization process, 50.0 g co-crystal, KF ≦0.2 wt %): about 7 μm
SMILES: CCS(=O)(=O)c1cc2cc(C[C@](O)(CC(C)(C)c3ccc(F)cc3C(N)=O)C(F)(F)F)[nH]c2cn1.O=P(O)(O)O [2-[(3R)-3-(5-ethanesulfonyl-1H-pyrrolo[2,3-c]pyridin-2-ylmethyl)-4,4,4-trifluoro-3-hydroxy-1,1-dimethylbutyl]-5-fluorobenzamide phosphoric acid co-crystal]
